Test system: MV-4-11 cells
Experiment: Gene expression microarray analysis (Affymetrix PrimeView) and GSEA
Assay type: cell-based, human
Parameters: RFU PODN (11730768_x_at) / Fold change /veh PODN (11730768_x_at) / RFU LINC00158 (11744669_a_at) / Fold change /veh LINC00158 (11744669_a_at) / RFU DUSP10 (11751237_a_at) / Fold change /veh DUSP10 (11751237_a_at) / RFU ID3 (11757404_x_at) / Fold change /veh ID3 (11757404_x_at) / RFU PLEKHG5 (11737974_s_at) / Fold change /veh PLEKHG5 (11737974_s_at) / RFU LRRC4B (11730491_at) / Fold change /veh LRRC4B (11730491_at) / RFU GIMAP4 (11747438_a_at) / Fold change /veh GIMAP4 (11747438_a_at) / RFU KRT8 (11758183_x_at) / Fold change /veh KRT8 (11758183_x_at) / RFU CNN1 (11734310_a_at) / Fold change /veh CNN1 (11734310_a_at) / RFU VPS37D (11726825_at) / Fold change /veh VPS37D (11726825_at) / RFU C10orf10 (11716522_x_at) / Fold change /veh C10orf10 (11716522_x_at) / RFU KIR2DL2 /// KIR2DL4 /// KIR2DL5A /// KIR2DL5B /// KIR2DS1 /// KIR2DS2 /// KIR2DS3 /// KIR2DS4 /// KIR3DL3 /// KIR3DL3 /// KIR3DS1 (11738374_at) / Fold change /veh KIR2DL2 /// KIR2DL4 /// KIR2DL5A /// KIR2DL5B /// KIR2DS1 /// KIR2DS2 /// KIR2DS3 /// KIR2DS4 /// KIR3DL3 /// KIR3DL3 /// KIR3DS1 (11738374_at) / RFU C1QL1 (11718748_at) / Fold change /veh C1QL1 (11718748_at) / RFU TMPRSS4 (11747572_a_at) / Fold change /veh TMPRSS4 (11747572_a_at) / RFU HAMP (11756126_x_at) / Fold change /veh HAMP (11756126_x_at) / RFU RNFT2 (11725882_a_at) / Fold change /veh RNFT2 (11725882_a_at) / RFU NR4A2 (11747474_a_at) / Fold change /veh NR4A2 (11747474_a_at) / RFU ABCC12 (11746883_a_at) / Fold change /veh ABCC12 (11746883_a_at) / RFU TMEM136 (11760407_x_at) / Fold change /veh TMEM136 (11760407_x_at) / RFU CLDN22 /// WWC2 (11732394_at) / Fold change /veh CLDN22 /// WWC2 (11732394_at) / RFU HLA-DPB1 (11760878_x_at) / Fold change /veh HLA-DPB1 (11760878_x_at) / RFU SPINT1 (11716480_a_at) / Fold change /veh SPINT1 (11716480_a_at) / RFU GAP43 (11754022_s_at) / Fold change /veh GAP43 (11754022_s_at) / RFU A4GNT (11735810_at) / Fold change /veh A4GNT (11735810_at) / RFU PRB3 (11715151_x_at) / Fold change /veh PRB3 (11715151_x_at) / RFU TUBB4B (11761932_at) / Fold change /veh TUBB4B (11761932_at) / RFU CAPN14 (11732068_a_at) / Fold change /veh CAPN14 (11732068_a_at) / RFU TMCC2 (11721928_a_at) / Fold change /veh TMCC2 (11721928_a_at) / RFU IRGQ (11745062_a_at) / Fold change /veh IRGQ (11745062_a_at) / RFU FAM174B (11720279_a_at) / Fold change /veh FAM174B (11720279_a_at) / RFU TMPRSS4 (11748680_a_at) / Fold change /veh TMPRSS4 (11748680_a_at) / RFU FAM212B (11763350_a_at) / Fold change /veh FAM212B (11763350_a_at) / RFU PLEKHG5 (11743358_a_at) / Fold change /veh PLEKHG5 (11743358_a_at) / RFU ZSCAN30 (11745921_a_at) / Fold change /veh ZSCAN30 (11745921_a_at) / RFU CMKLR1 (11741424_a_at) / Fold change /veh CMKLR1 (11741424_a_at) / RFU LOC101060620 /// MAPK8IP1 (11723275_at) / Fold change /veh LOC101060620 /// MAPK8IP1 (11723275_at) / RFU SPTSSB (11747773_x_at) / Fold change /veh SPTSSB (11747773_x_at) / RFU PRSS12 (11739890_at) / Fold change /veh PRSS12 (11739890_at) / RFU BIN1 (11741810_x_at) / Fold change /veh BIN1 (11741810_x_at) / RFU WNT11 (11732464_a_at) / Fold change /veh WNT11 (11732464_a_at) / RFU C10orf10 (11716521_a_at) / Fold change /veh C10orf10 (11716521_a_at) / RFU C5orf56 (11738089_at) / Fold change /veh C5orf56 (11738089_at) / RFU CYB561 (11721691_x_at) / Fold change /veh CYB561 (11721691_x_at) / RFU ANKRD19P (11752326_a_at) / Fold change /veh ANKRD19P (11752326_a_at) / RFU OR2T12 /// OR2T33 /// OR2T8 (11738714_s_at) / Fold change /veh OR2T12 /// OR2T33 /// OR2T8 (11738714_s_at) / RFU VCAN (11748164_a_at) / Fold change /veh VCAN (11748164_a_at) / RFU JSRP1 (11732532_at) / Fold change /veh JSRP1 (11732532_at) / RFU KRTAP10-11 (11738290_x_at) / Fold change /veh KRTAP10-11 (11738290_x_at) / RFU MYO3A (11730013_a_at) / Fold change /veh MYO3A (11730013_a_at) / RFU EBF3 (11725865_a_at) / Fold change /veh EBF3 (11725865_a_at) / RFU CAMK2N1 (11719241_x_at) / Fold change /veh CAMK2N1 (11719241_x_at) / RFU C5orf56 (11738088_a_at) / Fold change /veh C5orf56 (11738088_a_at) / RFU OLFML3 (11715873_a_at) / Fold change /veh OLFML3 (11715873_a_at) / RFU LOC100653217 /// NTM (11731650_a_at) / Fold change /veh LOC100653217 /// NTM (11731650_a_at) / RFU MAPK11 (11762145_a_at) / Fold change /veh MAPK11 (11762145_a_at) / RFU FIZ1 (11724087_x_at) / Fold change /veh FIZ1 (11724087_x_at) / RFU OASL (11726364_x_at) / Fold change /veh OASL (11726364_x_at) / RFU SOX15 (11748057_x_at) / Fold change /veh SOX15 (11748057_x_at) / RFU CD79A (11719716_a_at) / Fold change /veh CD79A (11719716_a_at) / RFU HIST1H1D (11736915_at) / Fold change /veh HIST1H1D (11736915_at) / RFU CASKIN2 (11723855_a_at) / Fold change /veh CASKIN2 (11723855_a_at) / RFU LOC730098 (11760151_x_at) / Fold change /veh LOC730098 (11760151_x_at) / RFU OR4N2 (11742367_at) / Fold change /veh OR4N2 (11742367_at) / RFU PRRT2 (11749266_a_at) / Fold change /veh PRRT2 (11749266_a_at) / RFU SNX32 (11753110_a_at) / Fold change /veh SNX32 (11753110_a_at) / RFU CDHR5 (11726645_a_at) / Fold change /veh CDHR5 (11726645_a_at) / RFU RCAN1 (11760418_a_at) / Fold change /veh RCAN1 (11760418_a_at) / RFU FAM167A (11723789_a_at) / Fold change /veh FAM167A (11723789_a_at) / RFU FAM26E (11764081_at) / Fold change /veh FAM26E (11764081_at) / RFU ISYNA1 (11749810_s_at) / Fold change /veh ISYNA1 (11749810_s_at) / RFU ACY1 (11761880_at) / Fold change /veh ACY1 (11761880_at) / RFU 11764098_at / Fold change /veh 11764098_at / RFU SAMD14 (11745864_x_at) / Fold change /veh SAMD14 (11745864_x_at) / RFU NPB (11741838_a_at) / Fold change /veh NPB (11741838_a_at) / RFU TMPRSS6 (11731388_a_at) / Fold change /veh TMPRSS6 (11731388_a_at) / RFU KRTAP10-2 (11738614_at) / Fold change /veh KRTAP10-2 (11738614_at) / RFU ARHGAP8 /// PRR5-ARHGAP8 (11727945_x_at) / Fold change /veh ARHGAP8 /// PRR5-ARHGAP8 (11727945_x_at) / RFU KRTAP5-7 /// NADSYN1 (11734609_at) / Fold change /veh KRTAP5-7 /// NADSYN1 (11734609_at) / RFU RASL12 (11751679_a_at) / Fold change /veh RASL12 (11751679_a_at) / RFU CDKN2B (11736163_a_at) / Fold change /veh CDKN2B (11736163_a_at) / RFU PRF1 (11729649_at) / Fold change /veh PRF1 (11729649_at) / RFU, ZNF638 /// ZNF638-IT1 / Fold change vs veh, ZNF638 /// ZNF638-IT1 / RFU, PANK3 / Fold change vs veh, PANK3 / RFU, SH3YL1 / Fold change vs veh, SH3YL1 / RFU, ZEB2 / Fold change vs veh, ZEB2 / RFU, NRIP1 / Fold change vs veh, NRIP1 / RFU, PTTG1IP / Fold change vs veh, PTTG1IP / RFU, CAPN2 / Fold change vs veh, CAPN2 / RFU, MED14 / Fold change vs veh, MED14 / RFU, SNORA58 / Fold change vs veh, SNORA58 / RFU, C1orf63 / Fold change vs veh, C1orf63 / RFU, LRRFIP1 / Fold change vs veh, LRRFIP1 / RFU, NDUFAF7 / Fold change vs veh, NDUFAF7 / RFU, SLC12A2 / Fold change vs veh, SLC12A2 / RFU, IBTK / Fold change vs veh, IBTK / RFU, ESF1 / Fold change vs veh, ESF1 / Fold change vs veh, TMEM50B / RFU, TAOK1 / Fold change vs veh, TAOK1 / RFU, ACBD3 / Fold change vs veh, ACBD3 / RFU, TMA16 / Fold change vs veh, TMA16 / RFU, RWDD3 / Fold change vs veh, RWDD3 / RFU, BCAT1 / Fold change vs veh, BCAT1 / RFU, EDEM3 / Fold change vs veh, EDEM3 / RFU, TMEM33 / Fold change vs veh, TMEM33 / RFU, WDR75 / Fold change vs veh, WDR75 / RFU, AHCTF1 / Fold change vs veh, AHCTF1 / RFU, TFRC / Fold change vs veh, TFRC / RFU, ZDHHC17 / Fold change vs veh, ZDHHC17 / RFU, NOM1 / Fold change vs veh, NOM1 / RFU, ARL8B / Fold change vs veh, ARL8B / RFU, ZBTB11 / Fold change vs veh, ZBTB11 / RFU, TAMM41 / Fold change vs veh, TAMM41 / RFU, KIAA1704 /// LOC100996395 / Fold change vs veh, KIAA1704 /// LOC100996395 / RFU, ING1 / Fold change vs veh, ING1 / RFU, TRMT61B / Fold change vs veh, TRMT61B / RFU, FUBP3 / Fold change vs veh, FUBP3 / RFU, TP53 / Fold change vs veh, TP53 / RFU, TNKS2 / Fold change vs veh, TNKS2 / RFU, ZFP14 / Fold change vs veh, ZFP14 / RFU, ACTR2 / Fold change vs veh, ACTR2 / RFU, PPP3R1 / Fold change vs veh, PPP3R1 / RFU, PIK3R1 / Fold change vs veh, PIK3R1 / RFU, HNRNPA1 / Fold change vs veh, HNRNPA1 / RFU, RNF170 / Fold change vs veh, RNF170 / RFU, ZNF28 / Fold change vs veh, ZNF28 / RFU, RNGTT / Fold change vs veh, RNGTT / RFU, OGT / Fold change vs veh, OGT / RFU, BRD1 / Fold change vs veh, BRD1 / RFU, MARS / Fold change vs veh, MARS / RFU, ZNF655 / Fold change vs veh, ZNF655 / RFU, FAHD1 / Fold change vs veh, FAHD1 / RFU, BDP1 / Fold change vs veh, BDP1 / RFU, LRRCC1 / Fold change vs veh, LRRCC1 / RFU, ARID1A / Fold change vs veh, ARID1A / RFU, ZNF146 / Fold change vs veh, ZNF146 / RFU, ZNF330 / Fold change vs veh, ZNF330 / RFU, GPN3 / Fold change vs veh, GPN3 / RFU, C9orf123 / Fold change vs veh, C9orf123 / RFU, N4BP2L2 / Fold change vs veh, N4BP2L2 / RFU, ARFIP1 / Fold change vs veh, ARFIP1 / RFU, FAM179B / Fold change vs veh, FAM179B / RFU, BCL10 / Fold change vs veh, BCL10 / RFU, UHRF1BP1L / Fold change vs veh, UHRF1BP1L / RFU, BET1 / Fold change vs veh, BET1 / RFU, CNOT2 / Fold change vs veh, CNOT2 / RFU, ZNF268 / Fold change vs veh, ZNF268 / Fold change vs veh, ZNF507 / RFU, DGCR2 / Fold change vs veh, DGCR2 / RFU, WDSUB1 / Fold change vs veh, WDSUB1 / Fold change vs veh, HSP90B1 /// MIR3652 / RFU, ADSS / Fold change vs veh, ADSS / RFU, GK / Fold change vs veh, GK / RFU, ZNF148 / Fold change vs veh, ZNF148 / RFU, TAF9 / Fold change vs veh, TAF9 / RFU, SLC1A5 / Fold change vs veh, SLC1A5 / RFU, SLMO2 / Fold change vs veh, SLMO2 / RFU, ABCC4 / Fold change vs veh, ABCC4 / RFU, LOC101060439 /// RAP1B / Fold change vs veh, LOC101060439 /// RAP1B / RFU, RFX7 / Fold change vs veh, RFX7 / RFU, GTPBP10 / Fold change vs veh, GTPBP10 / RFU, CNEP1R1 / Fold change vs veh, CNEP1R1 / RFU, BIVM-ERCC5 /// ERCC5 / Fold change vs veh, BIVM-ERCC5 /// ERCC5 / RFU, ILF3 / Fold change vs veh, ILF3 / RFU 11762660_at / Fold change /veh 11762660_at / RFU VCAN (11757783_s_at) / Fold change /veh VCAN (11757783_s_at) / RFU DDX43 (11728927_at) / Fold change /veh DDX43 (11728927_at) / RFU KRT8 (11758188_x_at) / Fold change /veh KRT8 (11758188_x_at) / RFU NKD1 (11759106_at) / Fold change /veh NKD1 (11759106_at) / RFU SRD5A1 (11742802_a_at) / Fold change /veh SRD5A1 (11742802_a_at) / RFU TPSAB1 /// TPSB2 (11721975_s_at) / Fold change /veh TPSAB1 /// TPSB2 (11721975_s_at) / RFU GSTM3 (11746129_a_at) / Fold change /veh GSTM3 (11746129_a_at) / RFU IL23R (11737362_x_at) / Fold change /veh IL23R (11737362_x_at) / RFU TMEM51 (11727254_a_at) / Fold change /veh TMEM51 (11727254_a_at) / RFU PIWIL2 (11732686_x_at) / Fold change /veh PIWIL2 (11732686_x_at) / RFU ORM1 (11744905_x_at) / Fold change /veh ORM1 (11744905_x_at) / RFU CCDC152 (11743942_at) / Fold change /veh CCDC152 (11743942_at) / RFU ECM1 (11717891_a_at) / Fold change /veh ECM1 (11717891_a_at) / RFU IL23R (11748794_a_at) / Fold change /veh IL23R (11748794_a_at) / RFU TNFAIP8L3 (11732012_x_at) / Fold change /veh TNFAIP8L3 (11732012_x_at) / RFU MBOAT4 (11741988_at) / Fold change /veh MBOAT4 (11741988_at) / RFU 11764193_at / Fold change /veh 11764193_at / RFU TMEM53 (11763286_at) / Fold change /veh TMEM53 (11763286_at) / RFU MAGEB2 (11727129_at) / Fold change /veh MAGEB2 (11727129_at) / RFU TMEM200A (11744735_a_at) / Fold change /veh TMEM200A (11744735_a_at) / RFU CCDC152 (11751479_a_at) / Fold change /veh CCDC152 (11751479_a_at) / RFU FAM211A (11726209_a_at) / Fold change /veh FAM211A (11726209_a_at) / RFU RGS16 (11746705_a_at) / Fold change /veh RGS16 (11746705_a_at) / RFU VCAN (11755009_s_at) / Fold change /veh VCAN (11755009_s_at) / RFU RHOB (11743442_s_at) / Fold change /veh RHOB (11743442_s_at) / RFU RGS16 (11720943_a_at) / Fold change /veh RGS16 (11720943_a_at) / RFU RGS16 (11720944_at) / Fold change /veh RGS16 (11720944_at) / RFU, VPS4B / Fold change vs veh, VPS4B / RFU, CREB1 / Fold change vs veh, CREB1 / RFU, DNAJC13 / Fold change vs veh, DNAJC13 / RFU, GNAQ / Fold change vs veh, GNAQ / RFU, CDK5R1 / Fold change vs veh, CDK5R1 / RFU, ZRANB3 / Fold change vs veh, ZRANB3 / RFU, CUL4A / Fold change vs veh, CUL4A / RFU, CCNY / Fold change vs veh, CCNY / RFU, UFL1 / Fold change vs veh, UFL1 / RFU, COG3 / Fold change vs veh, COG3 / RFU, DIAPH2 / Fold change vs veh, DIAPH2 / RFU, SKA2 / Fold change vs veh, SKA2 / RFU, AFF3 / Fold change vs veh, AFF3 / RFU, LMF1 / Fold change vs veh, LMF1 / RFU, IPO11 / Fold change vs veh, IPO11 / RFU, DFFB / Fold change vs veh, DFFB / RFU, FOXP1 / Fold change vs veh, FOXP1 / RFU, CARD8 / Fold change vs veh, CARD8 / RFU, STRN3 / Fold change vs veh, STRN3 / RFU, ADK / Fold change vs veh, ADK / RFU, RASSF2 / Fold change vs veh, RASSF2 / RFU, WIPF1 / Fold change vs veh, WIPF1 / RFU, LARP1B / Fold change vs veh, LARP1B / RFU, RASA1 / Fold change vs veh, RASA1 / RFU, RB1 / Fold change vs veh, RB1 / RFU, PPFIA1 / Fold change vs veh, PPFIA1 / RFU, MAT2A / Fold change vs veh, MAT2A / RFU, CCT5 / Fold change vs veh, CCT5 / RFU, WDR92 / Fold change vs veh, WDR92 / RFU, CUX1 / Fold change vs veh, CUX1 / RFU, TTC7A / Fold change vs veh, TTC7A / RFU, TMEM135 / Fold change vs veh, TMEM135 / RFU, DEPTOR / Fold change vs veh, DEPTOR / RFU, CPM / Fold change vs veh, CPM / RFU, DNAJB6 / Fold change vs veh, DNAJB6 / RFU, CACNA2D3 / Fold change vs veh, CACNA2D3 / RFU, DTX4 / Fold change vs veh, DTX4 / RFU, TFCP2 / Fold change vs veh, TFCP2 / RFU, GMCL1 /// GMCL1P1 / Fold change vs veh, GMCL1 /// GMCL1P1 / RFU, AEBP2 / Fold change vs veh, AEBP2 / RFU, SNHG1 /// SNORD22 /// SNORD25 /// SNORD26 /// SNORD27 /// SNORD28 /// SNORD29 /// SNORD31 / Fold change vs veh, SNHG1 /// SNORD22 /// SNORD25 /// SNORD26 /// SNORD27 /// SNORD28 /// SNORD29 /// SNORD31 / Fold change (Aza/veh), C12orf56 (ProbeSet 11735607_a_at) / Fold change (ACY-1035/veh), C12orf56 (ProbeSet 11735607_a_at) / Fold change (Aza/veh), FGFR1OP (ProbeSet 11751329_s_at) / Fold change (ACY-1035/veh), FGFR1OP (ProbeSet 11751329_s_at) / Fold change (Aza/veh), VPS36 (ProbeSet 11739960_a_at) / Fold change (ACY-1035/veh), VPS36 (ProbeSet 11739960_a_at) / RFU SYPL1 (11715823_x_at) / Fold change /veh SYPL1 (11715823_x_at) / RFU IGFBP7 (11715501_s_at) / Fold change /veh IGFBP7 (11715501_s_at) / RFU REEP3 (11722064_at) / Fold change /veh REEP3 (11722064_at) / RFU IGLL1 (11728026_x_at) / Fold change /veh IGLL1 (11728026_x_at): dose or concentration left out as unconfirmed
Details: ProbeSet 11729384_s_at; LIST D

**Q.** With Nc1ccc(-c2cccs2)cc1NC(=O)c1ccc2c(c1)cc(C1CC1)n2CCN1CCOCC1 [ACY-1035] as the compound, how does the “RFU, CCNY” value read?
**A.** 178.51 RFU
